Laboratory results from US20250140406A1, “CLASSIFYING TUMORS AND PREDICTING RESPONSIVENESS” (Oncocyte Corporation, priority 2022, published 2025).

Experiments:
[1] = test system: cancer cell lines classified IM, MSL, M; experiment: PRISM screen compound sensitivity correlated with IM, MSL and M subtype of cell lines (101 gene signature); format: cell-based
[2] = test system: cancer cell lines, DetermaIO classes; experiment: Association of PRISM compound sensitivity with DetermaIO (DTIO) cell line classes; format: cell-based
[3] = correlation of PRISM compound sensitivity with IM subtype correlation; test cell set (188 cell lines)
[4] = correlation of PRISM compound sensitivity with M subtype correlation; test cell set (188 cell lines)
[5] = correlation of PRISM compound sensitivity with MSL subtype correlation; test cell set (188 cell lines)
[6] = correlation of PRISM compound sensitivity with DTIO; test cell set
[7] = correlation of PRISM compound sensitivity with DTIO; training cell set
[8] = subtype (IM, MSL or M) with which compound sensitivity is negatively correlated; training cell set (371 cell lines), 101 gene signature
[9] = correlation of compound sensitivity with DTIO; test set
[10] = correlation of compound sensitivity with DTIO; training set
[11] = correlation of PRISM compound sensitivity with IM subtype correlation; test cell set
[12] = correlation of PRISM compound sensitivity with M subtype correlation; test cell set
[13] = correlation of PRISM compound sensitivity with MSL subtype correlation; test cell set
[14] = subtype (IM, MSL or M) with which PRISM compound sensitivity is negatively correlated; training cell set, 101 gene signature
[15] = correlation of PRISM compound sensitivity with DTIO (DetermaIO); test cell set (188 cell lines)
[16] = correlation of PRISM compound sensitivity with DTIO (DetermaIO); training cell set (371 cell lines)
[17] = subtype (IM, MSL or M) assigned to the compound by negative correlation of PRISM sensitivity with subtype; training cell set (371 cell lines), 101 gene signature
[18] = correlation of compound sensitivity with DetermaIO (DTIO), test set
[19] = correlation of compound sensitivity with DetermaIO (DTIO), training set

| Compound | IM Corr test [1, 3] | M Corr test [1, 4] | MSL Corr test [1, 5] | DTIO Corr test [2, 6] | DTIO Corr train [2, 7] | IM Corr test [1, 11] | M Corr test [1, 12] | MSL Corr test [1, 13] | DTIO Corr test [2, 15] | DTIO Corr train [2, 16] | also measured |
| --- | --- | --- | --- | --- | --- | --- | --- | --- | --- | --- | --- |
| O=C(NCCCN1CCCCCC1)C(c1ccccc1)C1CCCCC1 (centres unmarked) [MR-16728] | −0.01298 | 0.0251 | 0.06487 | 0.04353 | −0.1606 |  |  |  |  |  |  |
| O=C(O)/C=C1\CCCc2ccccc2C1O (centres unmarked) [NCS-382] | −0.09394 | 0.1059 | 0.05928 | −0.1705 | −0.1343 |  |  |  |  |  |  |
| CCCN(CCC)CCc1ccc(OC)c(OCCc2ccccc2)c1 [NE-100] | 0.02328 | −0.05032 | −0.07257 | 0.02588 | 0.0932 |  |  |  |  |  | TNBCType train [1, 8]: MSL |
| O=Nc1ccc(O)c2ncccc12 [NSC-3852] | 0.06425 | −0.1666 | −0.09058 | −0.00012 | 0.09356 |  |  |  |  |  | DTIO Corr test [2, 9]: −0.00012; DTIO Corr train [2, 10]: 0.09356 |
| CCN(CC)CCCC(C)Nc1nc(C)cc(Nc2ccc3nc(C)cc(N)c3c2)n1 (centres unmarked) [NSC-23766] | −0.00484 | −0.06657 | 0.1332 | 0.048 | 0.0675 |  |  |  |  |  |  |
| CCCCCCCC/C=C\CCCCCCCC(=O)NCCc1ccc(O)c(O)c1 [OLDA] | 0.0783 | −0.1742 | −0.06733 |  |  |  |  |  |  |  | TNBCType train ([1]; subtype (IM, MSL or M) the PRISM compound sensitivity is associated with; training cell set (371 cell lines); 101 gene signature): MSL; DTIO Corr test ([2]; correlation of PRISM compound sensitivity with DTIO; test cell set (188 cell lines)): 0.08614; DTIO Corr train ([2]; correlation of PRISM compound sensitivity with DTIO; training cell set (371 cell lines)): 0.09584 |
| CCCCCCCC/C=C\CCCCCCCC(=O)N[C@@H](CO)Cc1ccc(O)cc1 [OMDM-2] |  |  |  | 0.08864 | 0.00432 | 0.07857 | −0.1315 | −0.1068 |  |  | TNBCType train [1, 14]: MSL |
| C#Cc1cccc(Nc2ncnc3cc(OCCOC)c(OCCO)cc23)c1 [OSI-420] | −0.01776 | 0.1416 | 0.3027 |  |  |  |  |  | 0.1184 | −0.1185 |  |
| COc1cc2ncnc(Nc3cccc(Br)c3)c2cc1OC [PD-153035] |  |  |  | −0.03709 | −0.1232 | −0.1533 | 0.2905 | 0.3911 |  |  | DTIO Corr test [2, 9]: −0.03709; DTIO Corr train [2, 10]: −0.1232 |
| CC(=O)NCC(=O)N1[C@@H]2CC[C@H]1c1ccc(Nc3ncc(C(F)(F)F)c(NC4CCC4)n3)cc12 [PF-03814735] | 0.01597 | −0.07539 | −0.04366 |  |  |  |  |  | −0.05974 | −0.01193 | TNBCType train [1, 17]: MSL |
| OCCn1cc(-c2cnc3nnn(Cc4ccc5ncccc5c4)c3n2)cn1 [PF-04217903] | −0.04418 | 0.07402 | 0.07771 |  |  |  |  |  | −0.00139 | −0.1163 |  |
| C[C@H]1Oc2cc(cnc2N)-c2c(nn(C)c2C#N)CN(C)C(=O)c2ccc(F)cc21 [PF-06463922] | −0.1219 | −0.02078 | −0.05668 | −0.00728 | −0.07689 |  |  |  |  |  | TNBCType train [1, 8]: MSL |
| Cc1ccc([N+](=O)[O-])cc1S(=O)(=O)N(C)/N=C/c1cnc2ccc(Br)cn12 [PIK-75] |  |  |  | −0.1696 | −0.1178 | −0.1541 | 0.127 | 0.07706 |  |  |  |
| Cc1ccccc1-n1c(Cn2ncc3c(N)ncnc32)nc2cccc(C)c2c1=O [PIK-293] |  |  |  | 0.02467 | −0.1397 | −0.06338 | 0.066 | 0.00947 |  |  |  |
| Nc1ncnc2c1c(-c1cnc3[nH]ccc3c1)nn2C1CCCC1 [PP-121] | −0.08606 | 0.07821 | 0.02379 |  |  |  |  |  | −0.08787 | −0.1218 |  |
| N#CSc1cc(SC#N)c(N)nc1N [PR-619] |  |  |  | 0.05674 | 0.0993 | 0.1495 | −0.2203 | −0.1223 |  |  | DTIO Corr test [2, 18]: 0.05674; DTIO Corr train [2, 19]: 0.0993 |
| O=C(NCc1cccc(O)c1)Nc1nc(-c2ccncc2)cs1 [RKI-1447] | 0.09379 | −0.1921 | −0.2082 | 0.08122 | 0.04633 |  |  |  |  |  | TNBCType train [1, 8]: MSL; TNBCType test ([1]; subtype (IM, MSL, M) with which compound sensitivity correlates, test set): MSL; TNBCType train ([1]; subtype (IM, MSL, M) with which compound sensitivity correlates, training set): MSL; TNBCType test ([1]; subtype (IM, MSL, M) with which compound sensitivity correlates; test set): MSL; TNBCType train ([1]; subtype (IM, MSL, M) with which compound sensitivity correlates; training set): MSL; DTIO Corr test [2, 9]: 0.08122; DTIO Corr train [2, 10]: 0.04633; DTIO Corr test [2, 18]: 0.08122; DTIO Corr train [2, 19]: 0.04633 |
| O=[N+]([O-])c1cc(Cl)ccc1S(=O)(=O)N1CCN(Cc2ccccc2)CC1 [RN-1747] |  |  |  | −0.09773 | −0.1839 | −0.1441 | 0.1428 | 0.1269 |  |  |  |
| CC(C)c1cc(-c2ccc(F)c3ccccc23)nc(N)n1 [RS-127445] | 0.05394 | −0.1296 | −0.05973 |  |  |  |  |  | 0.0427 | 0.05431 | TNBCType train [1, 17]: MSL |
| O=c1[nH]ccc2cc(OC3CCNCC3)ccc12 [SAR407899] | 0.003595 | −0.1052 | −0.2277 |  |  |  |  |  | −0.00558 | 0.07673 | TNBCType train [1, 17]: MSL |
| COC(=O)[C@H](NC(=O)c1cc(-c2ccccc2)nc2ccccc12)c1ccccc1 [SB-218795] | −0.01019 | 0.01779 | −0.1047 |  |  |  |  |  | −0.06114 | −0.1377 |  |
| Cc1cccc(-c2[nH]c(C(C)(C)C)nc2-c2ccc3c(c2)OCO3)n1 [SB-505124] |  |  |  | 0.1683 | 0.2562 | 0.2475 | −0.1987 | −0.01627 |  |  | DTIO Corr test [2, 18]: 0.1683; DTIO Corr train [2, 19]: 0.2562 |
| COc1ccc(S(=O)(=O)N2CCCN(S(=O)(=O)c3ccc(OC)c(OC)c3)CC2)cc1OC [SB-756050] |  |  |  | −0.06711 | −0.07957 | −0.03347 | −0.03952 | 0.01577 |  |  |  |
| C=C(C)CN1CC[C@]23c4c5ccc(O)c4O[C@H]2c2[nH]c4ccccc4c2C[C@@]3(O)C1C5.Cl.O [SDM25N] | −0.1682 | 0.08807 | −0.06407 | −0.165 | −0.12 |  |  |  |  |  |  |
| COc1cc2ncnc(Sc3nnc(C)s3)c2cc1OC [SKLB1002] |  |  |  | 0.03788 | 0.02384 | 0.0147 | −0.00342 | −0.05424 |  |  | TNBCType train [1, 14]: MSL |
| Cl.NC1CCN(c2cccc(Cl)n2)CC1 [SR-57227A] | −0.02879 | −0.08168 | −0.00449 | 0.01635 | −0.1048 |  |  |  |  |  |  |
| Cc1nc(-c2cccnc2)sc1C(=O)Nc1ccccc1-c1cn2c(CN3CCOCC3)csc2n1 [SRT2104] |  |  |  | −0.05596 | −0.07665 | −0.05657 | 0.06965 | −0.08685 |  |  | TNBCType train [1, 14]: MSL |
| C[C@H](C[C@H](N)C(=O)O)C(=O)O [SYM-2081] | −0.08842 | 0.01603 | 0.05746 |  |  |  |  |  | −0.1311 | −0.0674 |  |
| CC(C)(O)CC(=O)NCCn1ccc2ncnc(Nc3ccc(Oc4cccc(C(F)(F)F)c4)c(Cl)c3)c21 [TAK-285] | −0.1598 | 0.2221 | 0.1785 |  |  |  |  |  | −0.06872 | −0.07158 | DTIO Corr test [2, 9]: −0.06872; DTIO Corr train [2, 10]: −0.07158 |
| N#Cc1c(Oc2ccc(F)c(NC(=O)Cc3cccc(C(F)(F)F)c3)c2)ccc2nc(NC(=O)C3CC3)sc12 [TAK-632] |  |  |  | 0.2089 | 0.08489 | 0.3042 | −0.2709 | 0.04709 |  |  | DTIO Corr test [2, 18]: 0.2089; DTIO Corr train [2, 19]: 0.08489; DTIO Corr test ([2]; correlation of compound sensitivity with DetermaIO (DTIO); test set): 0.2089; DTIO Corr train ([2]; correlation of compound sensitivity with DetermaIO (DTIO); training set): 0.08489 |
